Reference: patent publication US9227971B2, “Pyrazolo[1,5-a]pyrimidine compounds as mTOR inhibitors” (Merck Sharp & Dohme Corp., priority 2010, dated 2016)
Where two headings read alike, the source gives them in different places.

Tests used:
[1] = system: phosphorylated AKT Ser473 (pAKT S473), mTORC2 activity, PC3 cells; assay: mTOR target engagement assay, immunofluorescent cell-based, pAKT S473 readout (mTORC2 activity); conditions: compound treatment ninety minutes at 37° C.
Procedure, shortened: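 After blocking, cells were stained overnight at 4 °C with anti-pAKT S473 antibody, then a fluorescent secondary; inhibition was read as reduced fluorescence intensity.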

[2] = system: phosphorylated 4E-BP1 Thr37/46 (p4E-BP1 Thr37/46), mTORC1 activity, PC3 cells; assay: mTOR target engagement assay, immunofluorescent cell-based, p4E-BP1 Thr37/46 readout (mTORC1 activity); conditions: compound treatment ninety minutes at 37° C., read-out: p4E-BP1 Thr37/46 IC50
Description: The target engagement of mTOR kinase inhibitors was evaluated using an immunofluorescent cell-based assay. In this assay, inhibition of mTORC1 activity was measured by the reduction in the level of phosphorylated 4E-BP1^[…] (p4E-BP1 Thr37/46), and inhibition of mTORC2 activity was measured by the reduction of phosphorylated AKT^Ser473 (pAKT S473).
PC3 cells (prostate tumor cell-line that contains a mutation in the tumor suppressor PTEN, that promotes the phosphorylation and activation of AKT and 4E-BP1) were used in the immunofluorescence assay. PC3 cells were seeded on 384 well plates (black clear bottom, Matrix #4332) overnight. PC3 cells were then treated with 40 μl of the serially diluted test compounds (in 5% fetal bovine serum, F12 medium containing 0.25% DMSO) for ninety minutes at 37° C. The test compound solution was removed, and the plates were washed gently two times with 25 μl phosphate buffered saline (PBS). The cells were fixed by adding 25 μl of Prefer reagent (from Anatech LTD, Cat#414, a glyoxal fixative for fixing proteins within a cell) for sixty minutes followed by three washes with PBS. 5% Goat serum in PBS/0.3% Triton was used to block non-specific binding (60 minutes).
The primary antibodies targeting pAKT S473 and p4E-BP1 Thr37/46 were diluted into PBS/0.3% Triton and incubated with the cells overnight at 4° C. The antibodies targeting pAKTS473 (Cat#4085, Cell signaling) and p4E-BP1 Thr37/46 (Cat#2855, Cell signaling) were used at a 1:100 dilution. Plates were washed three times with PBS/0.1% Tween 20 before adding the secondary antibody at a 1:200 dilution. (goat anti-rabbit containing a fluorescent label, Alexa Fluor 488, Cat#A11008, Invitrogen) in PBS/0.3% Triton for 60 minutes.
Finally, the plates were washed three times with PBS/0.1% Tween 20 and the fluorescent intensity was read using an Analyst HT from Molecular Devices. The fluorescent intensity values from the serially diluted compound treatment group were analyzed using the Xlfit 4 program ([…]) (Formula 205: Y=Bottom+(Top-Bottom)/(1+(IC50/X)^Hillslope) to generate the IC50 value. Where Top is the maximum signal without Compound (+DMSO only) and Bottom represents maximum inhibition. Y is the fluorescence at some compound concentration. The control used to determine the fluorescent intensities for 100% pAKT S473 or 100% phosphorylated p4E-BP1 Thr37/46 were measured from untreated wells that contained only DMSO, instead of test compound.

| Compound | IC50 ([1]; Homo sapiens, PC-3, PC3 cells) [µM] | IC50 ([2]; Homo sapiens, PC-3, PC3 cells) [µM] | IC50 ([1]; PC3 cells) [µM] | IC50 ([2]; PC3 cells) [µM] |
| --- | --- | --- | --- | --- |
| CC(=O)c1c(C2CC3CCC(C2)N3C(=O)c2nn[nH]n2)nc2c(-c3ccc(-c4ccccc4)nc3)cnn2c1N [Compound 1.1.24, 1-(5-((1R,3s,5S)-8-(1H-tetrazole-5-carbonyl)-8-azabicyclo[3.2.1]octan-3-yl)-7-amino-3-(6-phenylpyridin-3-yl)pyrazolo[1,5-a]pyrimidin-6-yl)ethanone] | 1 to 10 | 1 to 10 |  |  |
| NC(=O)c1c([C@@H]2C[C@H]3CC[C@@H](C2)N3C(=O)c2nc[nH]n2)nc2c(-c3ccc(-c4ccccc4)nc3)cnn2c1N [Compound 1.1.25, 5-((1R,3s,5S)-8-(1H-1,2,4-triazole-3-carbonyl)-8-azabicyclo[3.2.1]octan-3-yl)-7-amino-3-(6-phenylpyridin-3-yl)pyrazolo[1,5-a]pyrimidine-6-carboxamide] | 0.001 to 0.1 | 0.001 to 0.1 |  |  |
| CC(=O)c1c([C@@H]2C[C@H]3CC[C@@H](C2)N3C(=O)c2nc[nH]n2)nc2c(-c3ccc(-c4ncc(C(F)F)s4)nc3)cnn2c1N [Compound 1.1.26, 1-(5-((1R,3s,5S)-8-(1H-1,2,4-triazole-3-carbonyl)-8-azabicyclo[3.2.1]octan-3-yl)-7-amino-3-(6-(5-(difluoromethyl)thiazol-2-yl)pyridin-3-yl)pyrazolo[1,5-a]pyrimidin-6-yl)ethanone] | 0.1 to 1 | 0.1 to 1 |  |  |
| CNC(=O)c1ccc(-c2cnn3c(N)c(C(C)=O)c([C@@H]4C[C@H]5CC[C@@H](C4)N5C(=O)c4nc[nH]n4)nc23)cn1 [Compound 1.1.28, 5-(5-((1R,3s,5S)-8-(1H-1,2,4-triazole-3-carbonyl)-8-azabicyclo[3.2.1]octan-3-yl)-6-acetyl-7-aminopyrazolo[1,5-a]pyrimidin-3-yl)-N-methylpicolinamide] | 1 to 10 | 1 to 10 |  |  |
| CC(=O)c1c([C@@H]2C[C@H]3CC[C@@H](C2)N3C(=O)c2nnc[nH]2)nc2c(-c3cnc(-c4ccccc4)c(O)c3)cnn2c1N [Compound 1.1.31, 1-(5-((1R,3s,5S)-8-(4H-1,2,4-triazole-3-carbonyl)-8-azabicyclo[3.2.1]octan-3-yl)-7-amino-3-(5-hydroxy-6-phenylpyridin-3-yl)pyrazolo[1,5-a]pyrimidin-6-yl)ethanone] | 1 to 10 | 1 to 10 |  |  |
| CC(=O)c1c([C@@H]2C[C@H]3CC[C@@H](C2)N3C(=O)CO)nc2c(-c3cnc(-c4ccccc4)c(O)c3)cnn2c1N [Compound 1.1.32, 1-((1R,3s,5S)-3-(6-acetyl-7-amino-3-(5-hydroxy-6-phenylpyridin-3-yl)pyrazolo[1,5-a]pyrimidin-5-yl)-8-azabicyclo[3.2.1]octan-8-yl)-2-hydroxyethanone] | 1 to 10 | 1 to 10 |  |  |
| CC(=O)c1c([C@@H]2C[C@H]3CC[C@@H](C2)N3C(=O)CO)nc2c(-c3ccc(-c4nccs4)nc3)cnn2c1N [Compound 1.1.33, 1-((1R,3s,5S)-3-(6-acetyl-7-amino-3-(6-(thiazol-2-yl)pyridin-3-yl)pyrazolo[1,5-a]pyrimidin-5-yl)-8-azabicyclo[3.2.1]octan-8-yl)-2-hydroxyethanone] | 0.001 to 0.1 | 0.1 to 1 |  |  |
| COc1ccc(-c2ccc(-c3cnn4c(N)c(C(C)=O)c([C@@H]5C[C@H]6CC[C@@H](C5)N6C(=O)CO)nc34)cn2)cc1CO [Compound 1.1.36, 1-((1R,3s,5S)-3-(6-acetyl-7-amino-3-(6-(3-(hydroxymethyl)-4-methoxyphenyl)pyridin-3-yl)pyrazolo[1,5-a]pyrimidin-5-yl)-8-azabicyclo[3.2.1]octan-8-yl)-2-hydroxyethanone] | 0.001 to 0.1 | 0.001 to 0.1 |  |  |
| CC(=O)c1c([C@@H]2C[C@H]3CC[C@@H](C2)N3C(=O)c2nnc[nH]2)nc2c(-c3ccc(-c4nccs4)nc3)cnn2c1N [Compound 1.1.37, 1-(5-((1R,3s,5S)-8-(4H-1,2,4-triazole-3-carbonyl)-8-azabicyclo[3.2.1]octan-3-yl)-7-amino-3-(6-(thiazol-2-yl)pyridin-3-yl)pyrazolo[1,5-a]pyrimidin-6-yl)ethanone] | 0.001 to 0.1 | 0.001 to 0.1 |  |  |
| CC(=O)c1c([C@@H]2C[C@H]3CC[C@@H](C2)N3C(=O)c2nnc[nH]2)nc2c(-c3ccc4ccc(F)cc4c3)cnn2c1N [Compound 1.1.38, 1-(5-((1R,3s,5S)-8-(4H-1,2,4-triazole-3-carbonyl)-8-azabicyclo[3.2.1]octan-3-yl)-7-amino-3-(7-fluoronaphthalen-2-yl)pyrazolo[1,5-a]pyrimidin-6-yl)ethanone] |  |  | 0.1 to 1 | 0.001 to 0.1 |
| CNC(=O)N1[C@@H]2CC[C@H]1C[C@H](c1nc3c(-c4ccc(-c5ccccc5)nc4)cnn3c(N)c1C(C)=O)C2 [Compound 1.1.39, (1R,3s,5S)-3-(6-acetyl-7-amino-3-(6-phenylpyridin-3-yl)pyrazolo[1,5-a]pyrimidin-5-yl)-N-methyl-8-azabicyclo[3.2.1]octane-8-carboxamide] | 0.001 to 0.1 | 0.001 to 0.1 |  |  |
| CC(=O)c1c([C@@H]2C[C@H]3CC[C@@H](C2)N3C(=O)c2nnc(O)[nH]2)nc2c(-c3ccc(-c4ccccc4)nc3)cnn2c1N [Compound 1.1.40, 1-(7-amino-5-((1R,3s,5S)-8-(5-hydroxy-4H-1,2,4-triazole-3-carbonyl)-8-azabicyclo[3.2.1]octan-3-yl)-3-(6-phenylpyridin-3-yl)pyrazolo[1,5-a]pyrimidin-6-yl)ethanone] | 0.1 to 1 | 0.1 to 1 |  |  |
| CC(=O)c1c([C@@H]2C[C@H]3CC[C@@H](C2)N3C(=O)c2cc[nH]c2)nc2c(-c3ccc(-c4ccccc4)nc3)cnn2c1N [Compound 1.1.41, 1-(5-((1R,3s,5S)-8-(1H-pyrrole-3-carbonyl)-8-azabicyclo[3.2.1]octan-3-yl)-7-amino-3-(6-phenylpyridin-3-yl)pyrazolo[1,5-a]pyrimidin-6-yl)ethanone] | 0.001 to 0.1 | 0.001 to 0.1 |  |  |
| CC(=O)c1c([C@@H]2C[C@H]3CC[C@@H](C2)N3S(=O)(=O)c2nnc[nH]2)nc2c(-c3ccc(-c4ccccc4)nc3)cnn2c1N [Compound 1.1.42, 1-(5-((1R,3s,5S)-8-(4H-1,2,4-triazol-3-ylsulfonyl)-8-azabicyclo[3.2.1]octan-3-yl)-7-amino-3-(6-phenylpyridin-3-yl)pyrazolo[1,5-a]pyrimidin-6-yl)ethanone] | 0.1 to 1 | 0.1 to 1 |  |  |
| CC(=O)c1c([C@@H]2C[C@H]3CC[C@@H](C2)N3C(=O)c2ccc[nH]2)nc2c(-c3ccc(-c4ccccc4)nc3)cnn2c1N [Compound 1.1.43, 1-(5-((1R,3s,5S)-8-(1H-pyrrole-2-carbonyl)-8-azabicyclo[3.2.1]octan-3-yl)-7-amino-3-(6-phenylpyridin-3-yl)pyrazolo[1,5-a]pyrimidin-6-yl)ethanone] | 0.1 to 1 | 0.1 to 1 |  |  |
| COCc1cc(-c2ccc(-c3cnn4c(N)c(C(C)=O)c([C@@H]5C[C@H]6CC[C@@H](C5)N6C(=O)CO)nc34)cn2)ccc1OC [Compound 1.1.44, 1-((1R,3s,5S)-3-(6-acetyl-7-amino-3-(6-(4-methoxy-3-(methoxymethyl)phenyl)pyridin-3-yl)pyrazolo[1,5-a]pyrimidin-5-yl)-8-azabicyclo[3.2.1]octan-8-yl)-2-hydroxyethanone] | 0.001 to 0.1 | 0.1 to 1 |  |  |
